In patent US4587218A, “Novel bioconverting microorganisms” (priority 1983, dated 1986):

Columns and labels:
[1] = test system: Cultures ATCC 23342, ATCC 31683, CSV 558 and CUC 014; assay: Sensitivity to nine antibiotics, all four cultures; format: cell-based, Actinoplanes missouriensis; conditions: identical pattern
Experimental: Temperature range, NaCl and sucrose tolerances, pH range, and antibiotic sensitivity were determined using ISP No. 2 (yeast-malt extract agar) plates. Plates were incubated at 30° C. for 14 days. The temperatures tested were 5°, 10°, 15°, 20°, 25°, 30°, 37°, 40°, 45°, 50° and 55° C.
Antibiotic sensitivity was determined using sensitivity discs padded on the surface of seeded agar plates. The following antibiotics were used: cephalothin (sodium) 30 μg, erythromycin (estolate) 15 μg, chloromycetin 30 μg, novobiocin 30 μg, penicillin (G) 10 units, rifampin 5 μg, streptomycin 10 μg, tetracycline 30 μg and vancomycin 30 μg.

[2] = test system: wild-type strain (ATCC 23342); assay: Buffer toxicity at pH 7.0, wild-type strain; conditions: buffers 0.05M adjusted to pH 7.0, growth checked
[3] = test system: mutants (ATCC 31683, CSV 558 and CUC 014); assay: Buffer toxicity at pH 7.0, mutant strains; conditions: all the mutants; buffers 0.05M adjusted to pH 7.0, growth checked

## CO[C@@H]1[C@@H](OC(N)=O)[C@@H](O)[C@H](Oc2ccc3c(O)c(NC(=O)c4ccc(O)c(CC=C(C)C)c4)c(=O)oc3c2C)OC1(C)C [Novobiocin]
[1]
  sensitivity to nine antibiotics: Resistance

## O=C(O)CC(O)(CC(=O)O)C(=O)O [citric acid]
[2]
  sensitivity to citric acid: not sensitive
[3]
  sensitivity to citric acid: sensitive

## CC1(C)S[C@@H]2[C@H](NC(=O)Cc3ccccc3)C(=O)N2[C@H]1C(=O)O [Penicillin G]
[1]
  sensitivity to nine antibiotics: Resistance
